Source: paper PMC4237199 (The Prostate, 2014)

Molecular target: Prostate-specific membrane antigen (PSMA), canine (Canis lupus, UniProt I4IY07)
Experiment: HPLC-based enzyme inhibition assay
Type: biochemical

Chain of Prostate-specific membrane antigen (PSMA), canine (I4IY07 29-779): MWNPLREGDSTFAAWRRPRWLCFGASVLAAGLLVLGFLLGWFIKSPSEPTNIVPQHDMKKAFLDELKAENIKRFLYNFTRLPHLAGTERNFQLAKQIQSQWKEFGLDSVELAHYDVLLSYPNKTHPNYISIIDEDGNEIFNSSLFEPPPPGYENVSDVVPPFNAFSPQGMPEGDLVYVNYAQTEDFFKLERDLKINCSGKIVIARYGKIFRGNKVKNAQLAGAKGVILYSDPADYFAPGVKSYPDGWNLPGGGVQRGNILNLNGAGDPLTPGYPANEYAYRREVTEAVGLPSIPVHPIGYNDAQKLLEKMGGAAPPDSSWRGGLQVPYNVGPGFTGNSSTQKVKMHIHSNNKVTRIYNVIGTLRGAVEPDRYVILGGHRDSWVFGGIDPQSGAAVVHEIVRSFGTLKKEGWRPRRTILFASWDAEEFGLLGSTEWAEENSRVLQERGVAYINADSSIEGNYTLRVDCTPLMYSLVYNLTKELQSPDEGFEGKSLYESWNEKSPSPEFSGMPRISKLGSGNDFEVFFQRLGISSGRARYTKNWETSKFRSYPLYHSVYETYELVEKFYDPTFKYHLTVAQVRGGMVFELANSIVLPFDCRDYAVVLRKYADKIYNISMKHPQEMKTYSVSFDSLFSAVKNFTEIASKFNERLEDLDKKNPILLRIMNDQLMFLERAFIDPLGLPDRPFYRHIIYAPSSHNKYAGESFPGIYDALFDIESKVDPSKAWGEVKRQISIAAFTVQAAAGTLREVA

Substance: FAMX-CTT-54 [compound 2]
- IC50: 1.6 nM
